The values that follow come from patent US9428465B2, “Acid ceramidase inhibitors and their use as medicaments” (FONDAZIONE ISTITUTO ITALIANO DI TECHNOLOGIA, priority 2012, dated 2016).

The target of experiment [1] is rat acid ceramidase (rAC) (Rattus norvegicus (Rat), UniProt Q6P7S1). In words: Rat acid ceramidase (rAC) enzymatic assay, LC/MS of lauric acid. Format: biochemical. To be noted: rat acid ceramidase, 100 μM N-lauroyl ceramide, pH 4.5. The procedure:
A lysosomal rat acid ceramidase (rAC) protein preparation was obtained from cells stably expressing rAC resuspended in 20 mM Tris HCl (pH 7.5) with 0.32 M sucrose. Samples were sonicated and centrifuged at 800×g for 15 min at 4° C. Supernatants were then centrifuged at 12,000×g for 30 min at 4° C. Pellets were re-suspended in PBS pH 7.4 and subjected to 2 freeze-thaw cycles at −80° C. The suspension was finally centrifuged at 105,000×g for 1 hr at 4° C. and the supernatant containing rAC was then used in the enzymatic assay.
r-AC protein samples were pre-incubated with various concentrations of test compounds or vehicle control in 100 mM NaH2PO4/citrate buffer pH 4.5, 0.1% Nonidet P-40, 3 mM DTT for 30 min at 37° C. Samples were incubated with 100 μM N-lauroyl ceramide (Nu-Chek Prep, Elysian, Minn.) at 37° for 30 min. The reaction was stopped by addition of a mixture of chloroform/methanol (2:1 vol/vol) containing 1 nmol of heptadecanoic acid (HDA; NuChek Prep). The organic phases were collected, dried under nitrogen, and analyzed by LC/MS in the negative-ion mode using heptadecanoic acid (HDA) as internal standard (m/z=199 for lauric acid, m/z=269 for HDA). HDA was eluted on an XDB Eclipse C18 column isocratically at 2.2 mL/min for 1 min with a solvent mixture of 95% methanol and 5% water, both containing 0.25% acetic acid, and 5 mM ammonium acetate. The column temperature was 50° C. Electrospray ionization (ESI) was in the negative mode, capillary voltage was 4 kV, and fragmentor voltage was 100 V. Nitrogen was used as drying gas at a flow rate of 13 L/min and at a temperature of 350° C. Nebulizer pressure was set at 60 psi. We monitored [M-H]− in the selected-ion monitoring (SIM) mode using HDA as internal standard.
Inhibition of rAC activity was calculated as a reduction of lauric acid in the samples compared to vehicle controls. Median inhibitory concentration (IC50) values were calculated by non-linear regression analysis of log [concentration]/inhibition curves using. GraphPad Prism 5 (GraphPad Software, Inc., CA, USA) applying a standard slope curve fitting.

The subject of experiment [2] is SW403 cells. In words: SW403 cell viability, MTT assay. Type of experiment: cell-based, human. As to the method:
(§1) Cells were seeded in 12- or 96-well plates in complete medium 24 hrs before treatment and then incubated for 24 hrs (single treatment) or 72 hrs (multiple treatments) with different drug concentrations in media without serum. Cell viability was then evaluated.
Alternatively, cell viability was assessed measuring mitochondrial functionality by the MIT assay, which is based on the reduction of the soluble tetrazolium salt MTT [(3-(4,5-dimethylthiazol-2-yl)-2,5-diphenyltetrazolium bromide] into insoluble formazan by mitochondria. Briefly, after treatment, cells were washed with PBS and incubated with 0.5 mg/ml, MTT for 2 hrs at room temperature, MTT reduction was quantified by absorbance at 570 nm using a UV-visible plate reader.
Background: Formazan colour is commonly taken as a measure of viable cells.

In experiment [3] the test system is SW403 cells. In words: SW403 cell viability, trypan blue assay. Particulars: prolonged (72 hrs) treatment, concentration-response, FIGS. 2A and 2B. Format: cell-based, human. The procedure: as §1
The trypan blue exclusion assay is based on the principle that viable cells have intact cell membrane and can therefore exclude the trypan blue dye. Cell viability was measured after 24 hrs incubation with the drug. Cells were harvested, centrifuged at 1200 rpm for 10 min and pellets re-suspended in PBS. To evaluate viability, cells were diluted 1:1 with 0.4% trypan blue dye (Sigma), incubated for 1 min and white (viable) cells were counted with a hemacytometer.

Experiment [4] relates to SW403 cells. In words: Isobolographic analysis of combined treatment of SW403 cells (ED50, trypan blue assay). Type of experiment: cell-based, human. The procedure: Interaction between drugs was assessed by isobolographic analysis, based on the concept of dose-equivalence which follows from the dose effect curves of the individual drugs (Tallarida R I, Interactions between drugs and occupied receptors. Pharmacol. Ther. 2007, 113, 197-209; Tallarida R J, Raffa R B, The application of drug dose equivalence in the quantitative analysis of receptor occupation and drug combinations. Pharmacol. Ther. 2010; 127, 165-174). Specifically, the individual drugs' potency and efficacy allow calculating the expected effect of a combination of the two drugs.
In the experiment of combined treatment, isobolograms were constructed by plotting on vertical and horizontal axes the ED50 data of the single drugs measured by trypan blue assay after subcronic treatment for 72 hrs. The straight line with axial intercepts represents the isobole of additivity and allows calculating the theoretical additive dose. Synergism is indicated by an observed pair (x, y) that plots below the isobole for the specified effect, whereas sub-additivity is indicated when an observed pair (x, y) plots above the isobole.

Experiment [5] concerns human colon adenocarcinoma cell line SW403. In words: Ceramide levels in SW403 cells (lipid extraction, LC/MS). Format: cell-based. Particulars: 3 μM, 3 hrs, vs. vehicle. The procedure: Lipids were extracted using a chloroform/methanol mixture (2:1 vol/vol, 3 mL) containing internal standards. The organic phases were collected, dried under nitrogen, and dissolved in methanol/chloroform (3:1 vol/vol) for LC/MS analyses.
Ceramides were analyzed by LC/MS^n, using a 1100-LC system (Agilent Technologies) equipped with an Ion Trap XCT and interfaced with ESI (Agilent Technologies). They were separated on a Poroshell 300 SB C18 column (2.1×75 mm i.d., 5 μm; Agilent Technologies) maintained at 30° C. A linear gradient of methanol in water containing 5 mM ammonium acetate and 0.25% acetic acid (from 80% to 100% of methanol in 3 man) was applied at a flow rate of 1 mL/min. […]
Tissue-derived ceramides were identified by comparison of their LC retention times and MS^n fragmentation patterns with those of authentic standards (Avanti Polar Lipids). Extracted ion chromatograms were used to quantify myristoyl ceramide (C140, m/z 510.5>492.5>264.3), palmitoyl ceramide (C16:0, m/z 538.5>520.3>264.3), stearoyl ceramide (C18:0 m/z 566.5>548.3>264.3), lignoceroylceramide (C24:0 m/z 650.5>632.3>264.3), nervonoylceramide (C24:1 m/z 648.5>630.3>264.3) and using lauroyl ceramide standard (m/z 482.5>464.5>264.3). […]

Where [6] appears, read: SW403 cells, 72 hrs, isobole of additivity, higher than the experimental values.

Chain of rat acid ceramidase (rAC) (Q6P7S1 142-394): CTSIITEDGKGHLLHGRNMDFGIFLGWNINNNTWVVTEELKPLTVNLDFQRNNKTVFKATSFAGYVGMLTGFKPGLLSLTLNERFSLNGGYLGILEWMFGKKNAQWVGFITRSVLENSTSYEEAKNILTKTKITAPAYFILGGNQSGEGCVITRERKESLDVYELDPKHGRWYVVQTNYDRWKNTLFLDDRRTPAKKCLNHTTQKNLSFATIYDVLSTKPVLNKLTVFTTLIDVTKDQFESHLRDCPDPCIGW
Chain of rat acid ceramidase (rAC) (Q6P7S1 21-141): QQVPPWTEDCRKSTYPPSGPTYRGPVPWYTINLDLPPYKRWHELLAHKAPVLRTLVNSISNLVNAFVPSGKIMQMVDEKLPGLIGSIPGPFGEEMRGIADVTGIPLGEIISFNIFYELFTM

Consider `CCCCCCNC(=O)n1cc(Br)c(=O)[nH]c1=O` [Example 5, 5-bromo-N-hexyl-2,4-dioxo-pyrimidine-1-carboxamide], for which, in experiment [1], the IC50 (in general, the concentration at which inhibition is half-maximal) amounted to 0.051 µM. Besides, the “interaction with 5FU in reducing cell viability (MTT assay)” value in the experiment with SW403 cells [2] (72 hrs, compound 30 μM + 5FU 300 nM) is listed as “synergistic effect”. For the same compound, the “SW403 cell viability (MTT assay)” value in the experiment with SW403 cells [2] (sub-chronic treatment 72 hrs, compounds 30 μM, 5FU 300 nM) was “reduced cell viability”. For the same compound, the “SW403 cell viability (trypan blue assay)” value in the experiment with SW403 cells [3] was “reduction of the viability”. Moreover, in the experiment on SW403 cells [4] (setting [6]), the “theoretical dose (Th) to be used with 20 nM taxol to obtain an additive effect” value is 9.5 µM and the “theoretical dose (Th) to be used with 300 nM 5FU to obtain an additive effect” value was 14.9 µM. The “interaction with taxol in reducing viability of SW403 cells (isobologram)” value in the experiment with SW403 cells [4] (prolonged treatment, 20 nM taxol, trypan blue ED50) was “synergistic effect”. In addition, the “interaction with 5-fluorouracil in reducing viability of SW403 cells (isobologram)” value in the experiment on SW403 cells [4] (prolonged treatment, 300 nM 5FU, trypan blue ED50) is given as “synergistic effect”. The “levels of C14:0, C16:0 and C18:0 ceramide” value in experiment [5] was “increased”.
